One may read the MIC as the lowest concentration that inhibits growth of the organism.

Values after ≈ are worked out from the molar mass of the structure shown. Some results are limits rather than exact numbers.

The subject of this assay is Neisseria gonorrhoeae, GC525 (NG-2888). The assay is described as follows: in-vitro antibacterial activity, microbroth dilution MIC susceptibility testing. In kind it is cell-based. As to conditions: Neisseria gonorrhoeae, microbroth dilution in gonococcal broth, 20-24 hours at 35 C, lowest concentration preventing visible growth, read-out: MIC. As to the method: The in-vitro antibacterial activity of selected compounds was determined against a stain of Neisseria gonorrhoeae, GC525 (NG-2888), which is described by Rouquette-Loughlin et al, in Journal of Bacteriology, February 2003, p. 1101-1106, at p. 1103. In general, minimum inhibitory concentration (MIC) susceptibility testing followed procedures recommended by the National Committee for Clinical Laboratory Standards (NCCLS^1-2) or followed the descriptions described below:
Neisseria gonorrhoeae strains were grown on Chocolate Agar II plates (BBL—Becton Dickinson Microbiology Systems, Cockeysville, Md.) and incubated at 35° C. in a humidified 5% CO2 incubator (Form a Scientific, Marietta Ohio). For microbroth dilution MIC testing, N. gonorrhoeae were tested in gonococcal broth (GCB):
Gram stains were also utilized. Permanent Stock Culture Collection
Bacterial stock cultures are stored as frozen suspensions at −70 C. N. gonorrhoeae cultures are suspended in inactivated Horse Serum (Colorado Serum Company, Denver, Colo.) containing 7.5% glucose prior to snap freezing in a dry ice/ethanol bath.
Preparation of Standardized Test Inocula and Plate Inoculation
Frozen stock cultures were used as the initial source of organisms for performing microbroth dilution MIC testing. Stock cultures were passed on their respective growth medium at least one growth cycle (18-24 hours) prior to their use. Bacterial culture suspensions were prepared directly from Chocolate Agar II plates into 10 mL cation-adjusted Mueller-Hinton Broth (CAMHB, BBL, # BB215069). Before use, cultures were adjusted to an optical density value of 1.6-2 on a Perkin-Elmer Lambda EZ150 Spectrophotometer (Wellesley, Mass.) set at a wavelength of 600 nm. Random cultures were plated for validation of actual colony counts. The adjusted cultures were diluted 400-fold (0.25 mL inoculum+100 mL GCB) into gonococcal broth producing a starting inoculum of approximately 5×10^5 cfu/mL. These cultures were inoculated into test plates (100 uL/well) using a Biomek® FX workstation (Beckman Coulter Inc., Fullerton, Calif.). The inoculated plates were placed in stacks of no more than 4 and covered with an empty plate. Plates were incubated for 20-24 hours at 35 C in a humidified CO2 incubator.
Test Compound (“Drug”) Preparation
Drug stock solutions (2 mg/mL in DMSO) were prepared on the day of testing. Drugs were weight corrected for assay content where necessary.
Drug Dilution Tray Preparation
Microbroth dilution stock plates were prepared in two dilution series, 64-0.06 ug drug/mL and 1-0.001 ug drug/mL. For the high concentration series, 200 uL of stock solution (2 mg/mL) was added to duplicate rows of a 96-well plate. This was used as the first well in the dilution series. Serial two-fold decremental dilutions were made using a BioMek FX robot (Beckman Coulter Inc., Fullerton, Calif.) with 10 of the remaining 11 wells, each of which contained 100 uL of the appropriate solvent/diluent. Row 12 contained solvent/diluent only and served as the control. For tube one of the low concentration series, 200 uL of a 31.25 ug/mL stock was added to duplicate rows of a 96-well plate. Serial two-fold dilutions were made as described above.
Daughter plates were spotted (3.2 uL/well) from the stock plates listed above using the BioMek FX robot and were inoculated with organism (100 uL/well) as described previously.
After incubation, the degree of growth in each well was read visually with the aid of a Test Reading Mirror (Dynatech Lab 220-16, Dynex Technologies, Chantilly, Va.). 96-well test plates are read in a darkened room with a single light shining from above. The MIC is the lowest concentration of drug that prevents macroscopically visible growth under the conditions of the test. […] If MIC values in duplicate tests differ by 1 well (two-fold), the […] value is reported. If duplicate tests vary by 2 dilutions (four-fold), the middle value is reported.
Background: Broth dilution looks for growth in wells or tubes with falling amounts of substance.
Consider `CCNC(=O)Nc1nc2cc(-c3cccnc3)cc(C(=O)NC3CCN(C(C)C)CC3)n2n1` [Example 41, 2-(3-Ethyl-ureido)-7-pyridin-3-yl-[1,2,4]triazolo[1,5-a]pyridine-5-carboxylic acid (1-isopropyl-piperidin-4-yl)-amide], for which the minimum inhibitory concentration (MIC) was determined as 16 µg/mL (≈ 35.5 µM). The result for `CCNC(=O)Nc1nc2cc(-c3cccnc3)cc(C(=O)N[C@@H](C)c3ccccc3)n2n1` [Example 42, (S)-2-(3-Ethyl-ureido)-7-pyridin-3-yl-[1,2,4]triazolo[1,5-a]pyridine-5-carboxylic acid(1-phenyl-ethyl)-amide] reads 8 µg/mL (≈ 18.6 µM); that for `CCNC(=O)Nc1nc2cc(-c3cccnc3)cc(C(=O)NCC(C)(C)C)n2n1` [Example 43, 2-(3-Ethyl-ureido)-7-pyridin-3-yl-[1,2,4]triazolo[1,5-a]pyridine-5-carboxylic acid (2,2-dimethyl-propyl)-amide], > 64 µg/mL; that for `CCNC(=O)Nc1nc2cc(-c3cccnc3)cc(C(=O)NC3CCOC3)n2n1` (centres unmarked) [Example 45, 2-(3-Ethyl-ureido)-7-pyridin-3-yl-[1,2,4]triazolo[1,5-a]pyridine-5-carboxylic acid (tetrahydro-furan-3-yl)-amide], > 64 µg/mL.

Consider `CCNC(=O)Nc1nc2cc(-c3cccnc3)cc(C(=O)NCCC3CCCN3C)n2n1` (centres unmarked) [Example 46, 2-(3-Ethyl-ureido)-7-pyridin-3-yl-[1,2,4]triazolo[1,5-a]pyridine-5-carboxylic acid [2-(1-methyl-pyrrolidin-2-yl)-ethyl]-amide], for which the minimum inhibitory concentration (MIC) was found to be 1 µg/mL (≈ 2.29 µM). For `CCNC(=O)Nc1nc2cc(-c3cccnc3)cc(C(=O)NCCCN3CCCC3)n2n1` [Example 47, 2-(3-Ethyl-ureido)-7-pyridin-3-yl-[1,2,4]triazolo[1,5-a]pyridine-5-carboxylic acid (3-pyrrolidin-1-yl-propyl)-amide], the MIC is 16 µg/mL (≈ 36.7 µM).

As for `CCNC(=O)Nc1nc2cc(-c3cccnc3)cc(C(=O)N[C@H](C)c3ccccc3)n2n1` [Example 48, (R)-2-(3-Ethyl-ureido)-7-pyridin-3-yl-[1,2,4]triazolo[1,5-a]pyridine-5-carboxylic acid(1-phenyl-ethyl)-amide], the MIC was determined as 16 µg/mL (≈ 37.3 µM). The result for `CCNC(=O)Nc1nc2cc(-c3cccnc3)cc(C(=O)N3CCC(N(CC)CC)C3)n2n1` (centres unmarked) [Example 49, 1-[5-(3-Diethylamino-pyrrolidine-1-carbonyl)-7-pyridin-3-yl-[1,2,4]triazolo[1,5-a]pyridin-2-yl]-3-ethyl-urea] reads > 64 µg/mL; that for `CCNC(=O)Nc1nc2cc(-c3cccnc3)cc(C(=O)Nc3nccs3)n2n1` [Example 50, 2-(3-Ethyl-ureido)-7-pyridin-3-yl-[1,2,4]triazolo[1,5-a]pyridine-5-carboxylic acidthiazol-2-ylamide], 2 µg/mL (≈ 4.9 µM). The value for `CCNC(=O)Nc1nc2cc(-c3cccnc3)cc(C(=O)N(C)Cc3nnc(C)o3)n2n1` [Example 51, 2-(3-Ethyl-ureido)-7-pyridin-3-yl-[1,2,4]triazolo[1,5-a]pyridine-5-carboxylic acid methyl-(5-methyl-[1,3,4]oxadiazol-2-ylmethyl)-amide] was 64 µg/mL (≈ 147 µM); that for `CCNC(=O)Nc1nc2cc(-c3cccc(C)c3)cc(C(=O)NCC)n2n1` [Example 52, 2-(3-Ethyl-ureido)-7-m-tolyl-[1,2,4]triazolo[1,5-a]pyridine-5-carboxylic acid ethylamide] was 4 µg/mL (≈ 10.9 µM). The result for `CCNC(=O)Nc1nc2cc(-c3ccc(F)c(C)c3)cc(C(=O)NCC)n2n1` [Example 53, 2-(3-Ethyl-ureido)-7-(4-fluoro-3-methyl-phenyl)-[1,2,4]triazolo[1,5-a]pyridine-5-carboxylic acid ethylamide] reads 16 µg/mL (≈ 41.6 µM). As to `CCNC(=O)Nc1nc2cc(-c3ccccc3OC)cc(C(=O)NCC)n2n1` [Example 54, 2-(3-Ethyl-ureido)-7-(2-methoxy-phenyl)-[1,2,4]triazolo[1,5-a]pyridine-5-carboxylic acid ethylamide], the minimum inhibitory concentration (MIC) was > 64 µg/mL. The result for `CCNC(=O)Nc1nc2cc(-c3ccc(F)c(F)c3)cc(C(=O)NCC)n2n1` [Example 55, 7-(3,4-Difluoro-phenyl)-2-(3-ethyl-ureido)-[1,2,4]triazolo[1,5-a]pyridine-5-carboxylic acid ethylamide] reads 2 µg/mL (≈ 5.15 µM); that for `CCNC(=O)Nc1nc2cc(-c3ccc4c(c3)CCO4)cc(C(=O)NCC)n2n1` [Example 57, 7-(2,3-Dihydro-benzofuran-5-yl)-2-(3-ethyl-ureido)-[1,2,4]triazolo[1,5-a]pyridine-5-carboxylic acid ethylamide], 2 µg/mL (≈ 5.07 µM); that for `CCNC(=O)Nc1nc2cc(-c3ccc(C(C)(C)C)cc3)cc(C(=O)NCC)n2n1` [Example 58, 7-(4-tert-Butyl-phenyl)-2-(3-ethyl-ureido)-[1,2,4]triazolo[1,5-a]pyridine-5-carboxylic acid ethylamide], 2 µg/mL (≈ 4.9 µM). The result for `CCNC(=O)Nc1nc2cc(-c3cccc(SC)c3)cc(C(=O)NCC)n2n1` [Example 60, 2-(3-Ethyl-ureido)-7-(3-methyl-sulfanyl-phenyl)-[1,2,4]triazolo[1,5-a]pyridine-5-carboxylic acid ethylamide] reads > 16 µg/mL.

`CCNC(=O)Nc1nc2cc(-c3ccc(C(C)C)cc3)cc(C(=O)NCC)n2n1` [Example 61, 2-(3-Ethyl-ureido)-7-(4-isopropyl-phenyl)-[1,2,4]triazolo[1,5-a]pyridine-5-carboxylic acid ethylamide]: the MIC amounted to 2 µg/mL (≈ 5.07 µM). The result for `CCNC(=O)Nc1nc2cc(-c3cccc(C(C)C)c3)cc(C(=O)NCC)n2n1` [Example 62, 2-(3-Ethyl-ureido)-7-(3-isopropyl-phenyl)-[1,2,4]triazolo[1,5-a]pyridine-5-carboxylic acid ethylamide] reads 2 µg/mL (≈ 5.07 µM); that for `CCNC(=O)Nc1nc2cc(-c3ccc(F)cc3C)cc(C(=O)NCC)n2n1` [Example 63, 2-(3-Ethyl-ureido)-7-(4-fluoro-2-methyl-phenyl)-[1,2,4]triazolo[1,5-a]pyridine-5-carboxylic acid ethylamide], 8 µg/mL (≈ 20.8 µM); that for `CCNC(=O)Nc1nc2cc(-c3ccc(F)cc3F)cc(C(=O)NCC)n2n1` [Example 64, 7-(2,4-Difluoro-phenyl)-2-(3-ethyl-ureido)-[1,2,4]triazolo[1,5-a]pyridine-5-carboxylic acid ethylamide], > 64 µg/mL.

Consider `CCNC(=O)Nc1nc2cc(-c3ccccc3C#N)cc(C(=O)NCC)n2n1` [Example 65, 7-(2-Cyano-phenyl)-2-(3-ethyl-ureido)-[1,2,4]triazolo[1,5-a]pyridine-5-carboxylic acid ethylamide], for which the MIC is 32 µg/mL (≈ 84.8 µM).

As to `CCNC(=O)Nc1nc2cc(-c3cc(F)ccc3F)cc(C(=O)NCC)n2n1` [Example 66, 7-(2,5-Difluoro-phenyl)-2-(3-ethyl-ureido)-[1,2,4]triazolo[1,5-a]pyridine-5-carboxylic acid ethylamide], the minimal inhibitory concentration (MIC) worked out at 4 µg/mL (≈ 10.3 µM). `CCNC(=O)Nc1nc2cc(-c3cccc(Cl)c3)cc(C(=O)NCC)n2n1` [Example 67, 7-(3-Chloro-phenyl)-2-(3-ethyl-ureido)-[1,2,4]triazolo[1,5-a]pyridine-5-carboxylic acid ethylamide]: the MIC came to 1 µg/mL (≈ 2.59 µM).

Turning to `CCNC(=O)Nc1nc2cc(-c3ccc(C)cc3)cc(C(=O)NCC)n2n1` [Example 68, 2-(3-Ethyl-ureido)-7-p-tolyl-[1,2,4]triazolo[1,5-a]pyridine-5-carboxylic acid ethylamide], the minimum inhibitory concentration (MIC) is 2 µg/mL (≈ 5.46 µM). The result for `CCNC(=O)Nc1nc2cc(-c3ccc(F)cc3)cc(C(=O)NCC)n2n1` [Example 69, 2-(3-Ethyl-ureido)-7-(4-fluoro-phenyl)-[1,2,4]triazolo[1,5-a]pyridine-5-carboxylic acid ethylamide] reads 8 µg/mL (≈ 21.6 µM).

The values above are taken from US7524860B2, “Antibacterial agents” (Pfizer Inc., priority 2004, dated 2009).
